# How the values were obtained:
# [1] = system: males feeling decrease in the quality of sleep and fatigue; test: Single histidine ingestion (VAS questionnaires, CogHealth); type: in vivo, human
# Text: Twenty males of 45 years old to less than 65 years old, who received total evaluation of not less than 17 points in the “self-diagnosis fatigue questionnaire” (Fatigue Science Laboratory Inc.), felt decrease in the quality of sleep (generally PSQI≥6), and obtained fatigue factor T scores of not less than 60 points in POMS performed in advance, were selected, and randomly divided into 2 groups (10 per group). The effect of single ingestion of histidine and control food (equal volume of cellulose) was compared in each group. As shown in the experiment protocol of FIG. 10A, the test subjects took the same meals for 3 days before the experiment, fasted for 10 to for 14 hr, and ingested capsules containing 1.65 g of L-histidine as a single ingestion amount (5 capsules (hard capsule #2 WHITE OP B/C) containing 0.33 g of L-histidine alone), or control sample capsules (5 capsules containing equal volume of cellulose). Before and 1 hr after ingestion of capsules, the test subjects answered the VAS questionnaires (fatigue, depression, vague sense, drowsiness, clear thinking, motivation, attentiveness, concentration) relating to fatigue, and cognitive function measurement task CogHealth (under higher difficulty conditions by simultaneously including mental arithmetic task as well) to measure intellectual performance which is one of the fatigue indices. Furthermore, they answered VAS questionnaires after completion of CogHealth.
# [2] = system: CD2F1 mice; test: Y-maze test, short-working memory (alternation behavior) after 48 hr burden of insufficient sleep; type: in vivo, mouse; details: His:VB6=360:1; His 900, VB6 2.5 mg/kg/day one week plus oral dose; FIG. 7B
# Protocol: Using CD2F1 mice (9-10-week-old) in the group constitution shown in Table 4, the test was performed as shown in the experiment protocol (FIG. 4A). The His group and His+VB6 group were allowed to drink each solution freely for one week so that the ingestion amount of His would be 900 mg/kg/day, and the ingestion amount of the VB6 group and the His+VB6 group would be […]. As the feed, a feed having the composition of Table 5 was used. After ingestion of His or VB6, or both for one week, insufficient sleep was burdened for 48 hr by filling water in the breeding cage at the depth of 0.5 cm. The burden was released at 6 hr from the start of the light phase, and the mice were placed back in the home cage and allowed to rest for 6 hr. […] A Y-maze test was performed at 3 hr from the start of the dark phase, and short-working memory was measured. […] A Y-maze test was performed at 3 hr from the start of the dark phase, and short-working memory was measured. […] A Y-maze test was performed at 3 hr from the start of the dark phase, and short-working memory was measured. […] A Y-maze test was performed at 3 hr from the start of the dark phase, and short-working memory was measured. […]
# [3] = system: males feeling decrease in the quality of sleep and fatigue; test: Crossover test of histidine ingestion for 14 days (POMS, VAS questionnaires, CogHealth); type: in vivo, human
# Text: Twenty males of 45 years old to less than 65 years old, who received total evaluation of not less than 17 points in the “self-diagnosis fatigue questionnaire” (Fatigue Science Laboratory Inc.), felt decrease in the quality of sleep (generally PSQI≥6), and obtained fatigue factor T scores of not less than 60 points in POMS, performed in advance, were selected, and randomly divided into 2 groups (10 per group). A crossover test, including ingesting histidine and control food (equal volume of cellulose) each for 14 days, was performed in each group. As shown in the experiment protocol of FIG. 9A, the test subjects ingested capsules containing 1.65 g of L-histidine as a daily ingestion amount (5 capsules (hard capsule #2 WHITE OP B/C) containing 0.33 g of L-histidine alone), or control sample capsules (5 capsules containing equal volume of cellulose) for 14 days. After the completion of 14 day ingestion, a 14 day resting period was taken. After the resting period, they ingested the capsules not ingested before the resting period. On the initial day and the day after completion of the capsule ingestion period, the test subjects answered POMS and the VAS questionnaires (fatigue, depression, vague sense, drowsiness, clear thinking, motivation, attentiveness, concentration) relating to fatigue, and cognitive function measurement task CogHealth (under higher difficulty conditions by simultaneously including mental arithmetic task as well) to measure intellectual performance which is one of the fatigue indices. Furthermore, they answered VAS questionnaires after completion of CogHealth.
# [4] = Safety of His ingestion: general properties, hematology, blood biochemistry; type: in vivo, human; details: ingestion of His (1.65 g, single or 14 days) in test subjects
# [5] = single ingestion, after completion of CogHealth
# [6] = single ingestion, before CogHealth, p<0.05, FIG. 10B
# [7] = 14 days, after completion of CogHealth, p<0.05, FIG. 9E
# [8] = 14 days, before CogHealth, vs control food, p<0.05, FIG. 9C
smiles,measurement,setting,value
"N[C@@H](Cc1c[nH]cn1)C(=O)O [His, histidine]",work time in 5 kinds of brain function measurement indices,"[1]; single 1.65 g L-histidine, 1 hr after ingestion, vs control food",shortened
same,VAS sense of concentration,[1]; [5],tended to increase
same,VAS sense of depression,[1]; [5],tended to decrease
same,VAS vague sense,"[1]; single ingestion, after completion of CogHealth, p<0.05",significantly decreased
same,VAS sense of concentration,"[1]; single ingestion, before CogHealth, FIG. 10B",tended to increase
same,VAS sense of attentiveness,[1]; [6],significantly increased
same,VAS sense of clear thinking,[1]; [6],significantly increased
same,alternation behavior as compared to the VB6 group,[2],significant increase
same,fatigue factor scores of POMS,"[3]; 1.65 g L-histidine daily for 14 days vs control food, paired t-test p<0.05, FIG. 9B",significantly decreased
same,reaction time of cognitive function measurement task,"[3]; 14 days, CogHealth, vs control food, FIG. 9D",shortened
same,reaction time of delayed recall task,"[3]; 14 days, CogHealth, vs control food, p<0.05, FIG. 9D",significantly decreased
same,VAS sense of attentiveness,[3]; [7],significantly increased
same,VAS sense of depression,[3]; [7],significantly decreased
same,VAS sense of motivation,[3]; [7],significantly increased
same,VAS sense of attentiveness,[3]; [8],significantly increased
same,VAS sense of clear thinking,[3]; [8],significantly increased
same,VAS sense of motivation,[3]; [8],significantly increased
same,"variation in general properties, hematology, and blood biochemistry",[4],did not show problematic variation

# Source: US10369163B2, “Anti-fatigue composition” (AJINOMOTO CO., INC., priority 2013, dated 2019)
